# Assay results published in patent publication US20040248766A1, “Selective inhibition of intracellular amyloid-beta neurotoxicity in human neurons” (priority 2001, published 2004).
# “Also recorded” adds a separate entry of the source. Numbered stars: 1 amine (or outer) side, 2 acyl side, 3 side chain; on linkers, the order of the positions; unused ones are H or OH. Bridge positions count the residues as written; N and C are the ends. Square brackets hold non-standard residues; d marks the D form. Peptide text beside a SMILES is read from it. I, II: the chains in the order shown. * marks the point of attachment. Actinocin(9to1) = Cc1c2oc3c(C)ccc(C(=O)[*:1])c3nc-2c(C(=O)[*:2])c(N)c1=O; NMeV = CN[C@H](C(=O)O)C(C)C; Cbz = O=C(OCc1ccccc1)*; Sar = CNCC(=O)O; CH2F = FC*
# Tests used:
# [1] = system: primary human neurons; test: Microinjection of Aβ peptides into the cytosol of primary human neurons, cell death by TUNEL; type: cell-based; conditions: for neuronal cell death (in words): fibrillized or non-fibrillized preparation, 10 nM, 24, 48 and 96 hours; for intracellular toxicity to human neurons (in words): peptide microinjected into cytosol
# Procedure: Cell cultures. Primary cultures of human neurons and astrocytes were prepared as described in LeBlanc, A., J. Neurosci. 15:7837-46 (1995), incorporated herein by reference. Fresh brain tissues were dissociated with 0.25% trypsin (Gibco-BRL) in phosphate buffered saline (PBS) at 37° C. for 15 minutes. The trypsin was inactivated. by adding 10% decomplemented fetal bovine serum (FBS, HyClone, Logan, Utah.) to the mixture. The dissociated tissues were triturated in 0.1 mg/ml DNaseI (Gibco-BRL) to obtain a homogeneous mixture. The mixture was filtered successively through 130 and 70 gm filters and centrifuged at 15,000 g for 10 minutes at 10° C. to pellet the cells. The cell pellet was washed once with PBS and once with minimal essential media (MEM, Gibco-BRL) in Earle's balanced salt solution containing 0.225% sodium bicarbonate, 1 mM sodium pyruvate, 2 mM L-glutamine, 0.1% dextrose, 1×antibiotic Pen-Strep (all from Gibco-BRL) and 5% decomplemented FBS.
# The cells were plated on poly-L-lysine-coated ACLARTM (Cat. No.: 33C; thickness: 0.5 mm; Allied Chemical, Minneapolis, Minn.) coverslips at a density of 3×10^6 cells/ml. Neurons and astrocytes were incubated at 37° C. in the MEM media with 5% CO2, and the media were changed every 48 hours. For neuron culture, 1 mM fluorodeoxyuridine (FDU, Gibco-BRL) was applied for the first 3 feedings and after that, used weekly to prevent proliferation of dividing cells. […] Microinjection or treatment was performed 10 days after plating for neurons and astrocytes.
# Aβ peptides. Aβ peptides (Bachem, King of Prussia, Pa.) were dissolved in sterile distilled water at 25 μM and incubated at 37° C. for 5 days. The peptides stock solutions were frozen and diluted in 1×PBS immediately before microinjection. […] A 250 μl aliquot was diluted to 0.25 μM and immediately frozen at −20° C. in aliquots of 50 μl. The remaining solution was incubated at 37° C. in Eppendorf tubes with continuous mixing by inversion. After incubation, the samples were removed, vortexed, sonicated twice for 1 minute in a bath type sonicator (ELMA GmbH & Co. KG, Germany) and frozen at −20° C. in […]. Each aliquot was used once to avoid possible effects of freeze and thaw cycles.
# (§1) Microinjection. Thin-walled Borosilicate glass capillaries (OD 1.0 mm, ID 0.5 mm) with microfilament (MTW1OOF-4, World Precision Instrument, Sarasota, Fla.) were pulled with a Flaming/Brown Micropipefte Puller (β-87, Sutter, Novato, Calif.) to obtain injection needles with a tip diameter of ˜0.5 μm. Microinjection was performed in the cytosol of each cell using the Eppendorf Microinjector 5246 (Hamburg, Germany) and Burleigh Micromanipulator MIS-5000 (Victor, N.Y.). Human neurons were injected with 25 pl/shot at an injection pressure of 100 hPa, a compensation pressure of 50 hPa, and an injection time of 0.1 s. Human astrocytes, M17, NT2 and La—N-1 cells were injected with 8 pl/shot at an injection pressure of 50 hPa, a compensation pressure of 30 hPa and an injection time of 0.1 s.
# The diluted peptides were injected at the indicated concentrations with 100 μg/ml dextran Texas Red (DTR) (MW: 3000, Molecular Probes, Eugene, Oreg.) as a fluorescent marker to recognize the injected cells.
# (§2) Measurement of neuronal apoptosis. Cells were fixed in freshly prepared 4% paraformaldehyde/4% sucrose for 20 minutes at room temperature and permeabilized in 0.1% Triton X-100, 0.1% sodium citrate on ice for 2 minutes. Terminal deoxynucleotidyl transferase-mediated dUTP nick end labeling (TUNEL) was performed using the In Situ Cell Death Detection Kit I as described by the manufacturer (Roche Molecular Biochemicals).
# [2] = system: Aβ1-42-mediated neuronal cell death; test: Inhibition of Aβ1-42-mediated neuronal cell death in Aβ1-42-microinjected neurons, TUNEL; type: cell-based, human; conditions: 1 hour pre-incubation, 24 hours; for block of Aβ1-42-induced neuronal death (in words): 5 μg/ml cycloheximide or 5 μM actinomycin D; for prevention of Aβ1-42-induced neuronal cell death (in words) / inhibition of the Aβ1-42-induced cell death: 5 μM inhibitor
# Procedure: cDNA Clones. Human Bcl-2 cDNA, Bax α cDNA, and APP695 cDNA were cloned into pCep4β (Invitrogen Canada, Burlington, ON, Canada). The p53 wild type and p53R273H dominant negative cDNA may be cloned in the pCMV-NEO vector. These cDNAs were purified through GlassMAXTM (Gibco-BRL, Rockville, Mass.) and diluted at 30 ng/μl in PBS before injection.
# Neutralizing Bax antibodies. Monoclonal anti-Bax 6A7 (amino acids 12-24: Pharmingen, San Diego, Calif.) and 2D2 (amino acids 3-16: Trevigen, Gaithersburg, Md.), polyclonal anti-Bax N-20 (Santa Cruz Biotechnology, Santa Cruz, Calif.), monoclonal anti-APP 22C11 (Roche Molecular Biochemicals, Laval, PQ, Canada), mouse IgG or rabbit sera were diluted at 50 μg/ml (for 6A7, 2D2, mouse IgG and 22C11) or 25 μg/ml (for polyclonal anti-Bax and rabbit sera) in PBS before use. A toxicity curve was done to determine this concentration as the highest non-toxic concentration that can be injected in neurons.
# as §1
# as §2, with “Biochemicals). The percentage of cell death was determined as the ratio of the number of DTR-TLUNEL-double-positive cells over the total number of DIR-positive cells.” for “Biochemicals).”
# Treatment with caspase inhibitors, cycloheximide, actinomycin D. Caspase pan inhibitor, Z-Valine-Alanine-Aspartic acid-fluoromethylketone (Z-VAD-fmk) (Biomol, Plymounth Meeting, PA); caspase-6 inhibitor, Z-Valine-Glutamic acid-Isoleucine-Aspartic acid-fmk (Z-VEID-fnk); caspase-3 inhibitor, Z-Aspartic acid-Glutamic acid-Valine-Aspartic acid-fmk (Z-DEVD-fmk); and caspase-8 inhibitor, Z-Isoleucine-Glutamic acid-Threomine-Aspartic acid-fmk (Z-IETD-fmk) (Sigma, Oakville, ON, Canada) were dissolved in 100% dimethylsulphoxide (DMSO, Sigma) at 5 mM and were diluted at 5 μM into culture medium immediately before use. The medium was changed every 48 hours.
# Stock solutions of 5 mg/ml cycloheximide and 200 IM actinomycin D were made in sterile distilled water and diluted to 5 μg/ml for cycloheximide and 5 μM for actinomycin D in the culture medium immediately before use.
# Dextran Texas Red (DTR) was co-injected with Aβ1-42 to identi the injected cells from the non-injected cells. The experiment was done on 200 microinjected neurons per preparation of neurons and on three independent neuron preparations.
# [3] = system: human neurons; test: Exposure of human neurons to extracellular Aβ peptides, TUNEL and propidium iodide; type: cell-based; conditions: 10 μM extracellular, 24 hours
# Procedure: To test if this particular batch of peptide might be neurotoxic, neurons were treated with 10 μM of peptides for 24 hours.
compound,measurement,setting,value
fibrillized Aβ1-40: Aβ1-40 incubated at 37° C. with mixing,neuronal cell death (in words),[1],neither fibrillized nor non-fibrillized Aβ1-40 cause significant cell death
C[C@@H]1C[C@@H]([C@H](O)CC2CC(=O)NC(=O)C2)C(=O)[C@@H](C)C1 [cycloheximide],block of Aβ1-42-induced neuronal death (in words),[2],efficiently block
Z-Valine-Glutamic acid-Isoleucine-Aspartic acid-fmk [Z-VEID-fmk],prevention of Aβ1-42-induced neuronal cell death (in words),[2],completely prevents
"COC(=O)C[C@H](NC(=O)[C@H](C)NC(=O)[C@@H](NC(=O)OCc1ccccc1)C(C)C)C(=O)CF [Z-VAD-fmk, Z-Valine-Alanine-Aspartic acid-fluoromethylketone] (Cbz-Val-Ala-Asp(OMe)-CH2F)",prevention of Aβ1-42-induced neuronal cell death (in words),[2],completely prevents
"CC(C)[C@H](NC(=O)[C@H](CCC(=O)O)NC(=O)[C@H](CC(=O)O)NC(=O)OCc1ccccc1)C(=O)N[C@@H](CC(=O)O)C(=O)CF [Z-DEVD-fmk, Z-Aspartic acid-Glutamic acid-Valine-Aspartic acid-fmk]",inhibition of the Aβ1-42-induced cell death,[2],30%
"CC[C@H](C)[C@H](NC(=O)OCc1ccccc1)C(=O)N[C@@H](CCC(=O)O)C(=O)N[C@H](C(=O)N[C@@H](CC(=O)O)C(=O)CF)[C@@H](C)O [Z-IETD-fmk, Z-Isoleucine-Glutamic acid-Threomine-Aspartic acid-fmk] (Cbz-IETD-CH2F)",prevention of Aβ1-42-induced neuronal cell death (in words),[2],completely prevents
non-fibrillized Aβ1-42: disaggregated Aβ1-42 diluted and immediately frozen,intracellular toxicity to human neurons (in words),[1],as neurotoxic as fibrillized
"Cc1c2oc3c(C)ccc(C(=O)N[C@@H]4C(=O)N[C@H](C(C)C)C(=O)N5CCC[C@H]5C(=O)N(C)CC(=O)N(C)[C@@H](C(C)C)C(=O)O[C@@H]4C)c3nc-2c(C(=O)N[C@@H]2C(=O)N[C@H](C(C)C)C(=O)N3CCC[C@H]3C(=O)N(C)CC(=O)N(C)[C@@H](C(C)C)C(=O)O[C@@H]2C)c(N)c1=O [actinomycin D] (I: T[dV]P[Sar][NMeV] / II: T[dV]P[Sar][NMeV]; ester I:1-I:C, II:1-II:C; linker I:N-II:N via Actinocin(9to1))",block of Aβ1-42-induced neuronal death (in words),[2],efficiently block
COC(=O)C[C@H](NC(=O)[C@H](C)NC(=O)[C@@H](NC(=O)[C@H](Cc1ccc(O)cc1)NC(=O)OCc1ccccc1)C(C)C)C(=O)CF [Z-YVAD-fmk],inhibition of the Aβ1-42-induced cell death,[2],30%
non-fibrillized Aβ1-40: disaggregated Aβ1-40 diluted and immediately frozen,neuronal cell death (in words),[1],neither fibrillized nor non-fibrillized Aβ1-40 cause significant cell death
Aβ1-40: 40 amino acid amyloid β peptide (SEQ ID NO: 1),effect on cell viability,"[1]; 10 nM aged peptide, between 24 and 96 hours",do not affect cell viability
same,cell death of microinjected neurons,"[1]; 10 nM aged peptide, sixteen days after injection",50%
same,intracellular toxicity to human neurons (in words),[1],not observed to be toxic; also recorded: significant apoptosis only 16 days after microinjection
same,toxicity of extracellular peptide (in words),[3],"do not undergo cell death; also recorded: Neither extracellular Aβ1-40, Aβ1-42, or Aβ40-1 are toxic"
